{"source": "paper PMC4474394", "about": "(OncoTargets and therapy, 2015)", "experiment": "In vivo biodistribution in NCI-H157-bearing BALB/c nude mice", "details": "99mTc-labeled peptide, judged from weak accumulation in brain tissue"}
{"sequence": "TMPFLFCNVNDVCNFASRNDYSKKK [T7]", "values": [{"measurement": "Blood–brain barrier penetration", "result": "poor"}]}
